Experimental findings from US11464866B2, “Pharmaceutical composition containing macromolecular drug” (BIODYNAMIC RESEARCH FOUNDATION, priority 2016, dated 2022) are described below.

For this series, the system named is S-180 mice (tumor model). The conditions noted are these: mouse, in vivo, 1 day. As to the method:
Method: In 1 ml of saline (0.01 M phosphate, 0.15 M NaCl, pH 7.4) were dissolved 10 mg of each sample (10 mg/ml) and the predetermined amount of each test reagent shown in Table 2. Then, 0.1 ml of each obtained solution and 0.1 ml of an aqueous solution (10 mg/ml) of Evans blue were intravenously administered to S-180 mice (tumor model) The tumor size of the mice was a diameter of 5 to 7 mm. The next day, each mouse was dissected and solid tumors were taken out therefrom. Evans blue was extracted by a conventional method and the leaked Evans blue was quantified by absorption of 560 nm (see Non-Patent Document 1).

Each structure is given as a SMILES string.

`O=[N+]([O-])OCC(CO[N+](=O)[O-])O[N+](=O)[O-]` [nitroglycerin]: the “enhanced effect (tumor delivery)” value is on record as at least 30%.
